Experimental findings from patent publication US20140038989A1, “TETRAHYDROPYRAZOLO [1,5-A] PYRIMIDINE AS ANTI-TUBERCULOSIS COMPOUNDS” (Glaxo Group Limited, priority 2011, published 2014) are described below.

Values after ≈ are worked out from the molar mass of the structure shown.

The subject of the experiment is Mycobacterium tuberculosis H37Rv. Put plainly: Mycobacterium tuberculosis H37Rv Inhibition Assay (Whole Cell Assay). It is filed as cell-based. The following applies: ATCC 25618 / H37Rv, H37Rv strain (ATCC25618), Middlebrook 7H9, six days at 37° C., resazurin fluorescence after 48 hours. On the technique in general: The colour change of resazurin is a common sign of viable cells or microbes.
A word on the MIC: it is the smallest concentration in the dilution series that meets the test's criterion for growth inhibition. A low value points to a more susceptible organism. Take `Cc1ccc(CNC(=O)c2cnn3c2N[C@@H](c2ccc(C)cc2)C[C@H]3C(F)(F)F)cc1` (relative stereo) [Example 25, Cis-N-(4-methylbenzyl)-5-(p-tolyl)-7-(trifluoromethyl)-4,5,6,7-tetrahydropyrazolo[1,5-a]pyrimidine-3-carboxamide]: the MIC was not above 1 µM.

Take `CCc1ccc([C@H]2C[C@@H](C(F)(F)F)n3ncc(C(=O)NCc4ncc(F)cc4F)c3N2)cc1` [Example 101, (5R,7S)—N-((3,5-difluoropyridin-2-yl)methyl)-5-(4-ethylphenyl)-7-(trifluoromethyl)-4,5,6,7-tetrahydropyrazolo[1,5-a]pyrimidine-3-carboxamide]: the MIC is not above 1 µM.

In turn, `CCc1ccc([C@H]2C[C@@H](C(F)(F)F)n3ncc(C(=O)NCc4ccc(F)cc4)c3N2)cc1` (relative stereo) [Example 58, Cis-5-(4-ethylphenyl)-N-(4-fluorobenzyl)-7-(trifluoromethyl)-4,5,6,7-tetrahydropyrazolo[1,5-a]pyrimidine-3-carboxamide] showed an MIC not above 1 µM.

For `CCc1ccc([C@H]2C[C@@H](C(F)(F)F)n3ncc(C(=O)NCc4ccncc4)c3N2)cc1` (relative stereo) [Example 48, Cis-5-(4-ethylphenyl)-N-(pyridin-4-ylmethyl)-7-(trifluoromethyl)-4,5,6,7-tetrahydropyrazolo[1,5-a]pyrimidine-3-carboxamide], the MIC is more than 2 µM.

On to `Cc1ccc([C@H]2C[C@@H](C(F)(F)F)n3ncc(C(=O)NCc4ccc(N(C)C)cc4)c3N2)cc1` (relative stereo) [Example 49, Cis-N-(4-(dimethylamino)benzyl)-5-(p-tolyl)-7-(trifluoromethyl)-4,5,6,7-tetrahydropyrazolo[1,5-a]pyrimidine-3-carboxamide], for which the MIC is more than 2 µM.

Compound `COc1ccc(CNC(=O)c2cnn3c2NC(c2ccc(C)cc2)CC3C(F)(F)F)cc1` (stereo not shown) [Example 39, N-(4-methoxybenzyl)-5-(p-tolyl)-7-(trifluoromethyl)-4,5,6,7-tetrahydropyrazolo[1,5-a]pyrimidine-3-carboxamide] returned an MIC not above 1 µM.

`Cc1ccc([C@H]2C[C@@H](C(F)(F)F)n3ncc(C(=O)NCc4ccccc4C(F)(F)F)c3N2)cc1` (relative stereo) [Example 43, Cis-5-(p-tolyl)-7-(trifluoromethyl)-N-(2-(trifluoromethyl)benzyl)-4,5,6,7-tetrahydropyrazolo[1,5-a]pyrimidine-3-carboxamide]: the MIC was more than 2 µM.

Turning to `CCc1ccc(C2CC(C(F)(F)F)n3ncc(C(=O)NCc4ccc5c(c4)OCO5)c3N2)cc1` (stereo not shown) [Example 37, N-(benzo[d][1,3]dioxol-5-ylmethyl)-5-(4-ethylphenyl)-7-(trifluoromethyl)-4,5,6,7-tetrahydropyrazolo[1,5-a]pyrimidine-3-carboxamide], the minimal inhibitory concentration (MIC) is not above 1 µM.

As for `CCc1ccc([C@H]2C[C@@H](C(F)(F)F)n3ncc(C(=O)NCc4ccc(OC)c(OC)c4)c3N2)cc1` (relative stereo) [Example 47, Cis-N-(3,4-dimethoxybenzyl)-5-(4-ethylphenyl)-7-(trifluoromethyl)-4,5,6,7-tetrahydropyrazolo[1,5-a]pyrimidine-3-carboxamide], the MIC is more than 2 µM.

`CCc1ccc([C@H]2C[C@@H](C(C)(F)F)n3ncc(C(=O)NCc4ccc(C)cc4)c3N2)cc1` (relative stereo) [Example 68, Cis-7-(1,1-difluoroethyl)-5-(4-ethylphenyl)-N-(4-methylbenzyl)-4,5,6,7-tetrahydropyrazolo[1,5-a]pyrimidine-3-carboxamide] yielded an MIC not above 1 µM.

`COc1cccc(CNC(=O)c2cnn3c2N[C@@H](c2ccc(C)cc2)C[C@H]3C(F)(F)F)c1` (relative stereo) [Example 27, Cis-N-(3-methoxybenzyl)-5-(p-tolyl)-7-(trifluoromethyl)-4,5,6,7-tetrahydropyrazolo[1,5-a]pyrimidine-3-carboxamide] yielded a minimal inhibitory concentration (MIC) of 1 to 2 µM (≈ 0.444 to 0.889 µg/mL).

With `CCc1ccc([C@H]2C[C@@H](C(F)(F)F)n3ncc(C(=O)NCc4ccc(C)n4C)c3N2)cc1` (relative stereo) [Example 72, Cis-N-((1,5-dimethyl-1H-pyrrol-2-yl)methyl)-5-(4-ethylphenyl)-7-(trifluoromethyl)-4,5,6,7-tetrahydropyrazolo[1,5-a]pyrimidine-3-carboxamide], the MIC is not above 1 µM.

The compound `COc1ccc(CNC(=O)c2cnn3c2NC(c2ccc(OC)cc2)CC3C(F)(F)F)cc1` (stereo not shown) [Example 54, N-(4-methoxybenzyl)-5-(4-methoxyphenyl)-7-(trifluoromethyl)-4,5,6,7-tetrahydropyrazolo[1,5-a]pyrimidine-3-carboxamide] returned a minimum inhibitory concentration (MIC) of more than 2 µM.

The compound `CCc1ccc([C@H]2C[C@@H](C(F)(F)F)n3ncc(C(=O)NCc4cccc(F)c4)c3N2)cc1` (relative stereo) [Example 60, Cis-5-(4-ethylphenyl)-N-(3-fluorobenzyl)-7-(trifluoromethyl)-4,5,6,7-tetrahydropyrazolo[1,5-a]pyrimidine-3-carboxamide] showed an MIC not above 1 µM.

Regarding `COc1ccc(C2CC(C(F)(F)F)n3ncc(C(=O)NCc4ccc5c(c4)OCO5)c3N2)cc1` (stereo not shown) [Example 41, N-(benzo[d][1,3]dioxol-5-ylmethyl)-5-(4-methoxyphenyl)-7-(trifluoromethyl)-4,5,6,7-tetrahydropyrazolo[1,5-a]pyrimidine-3-carboxamide], the MIC is not above 1 µM.

The compound `CCc1ccc([C@H]2C[C@@H](C(F)(F)F)n3ncc(C(=O)NCc4ccccc4OC)c3N2)cc1` (relative stereo) [Example 45, Cis-5-(4-ethylphenyl)-N-(2-methoxybenzyl)-7-(trifluoromethyl)-4,5,6,7-tetrahydropyrazolo[1,5-a]pyrimidine-3-carboxamide] had a minimal inhibitory concentration (MIC) of more than 2 µM.
